Data on one molecule can be found in paper PMC6904214, “A novel lineage of candidate pheromone receptors for sex communication in moths” (eLife, 2019).

In this test the target is T1, SlitOR5/SlitOrco (Spodoptera littoralis, UniProt A0A5J6NJF6).
T1 construct: full-length open reading frames (SlitOr5 1191 bp) in pCS2+, cRNAs co-injected in Xenopus oocytes; heteromer with co-receptor Orco; with Odorant receptor coreceptor
T1 sequence (A0A5J6NJF6 1-397): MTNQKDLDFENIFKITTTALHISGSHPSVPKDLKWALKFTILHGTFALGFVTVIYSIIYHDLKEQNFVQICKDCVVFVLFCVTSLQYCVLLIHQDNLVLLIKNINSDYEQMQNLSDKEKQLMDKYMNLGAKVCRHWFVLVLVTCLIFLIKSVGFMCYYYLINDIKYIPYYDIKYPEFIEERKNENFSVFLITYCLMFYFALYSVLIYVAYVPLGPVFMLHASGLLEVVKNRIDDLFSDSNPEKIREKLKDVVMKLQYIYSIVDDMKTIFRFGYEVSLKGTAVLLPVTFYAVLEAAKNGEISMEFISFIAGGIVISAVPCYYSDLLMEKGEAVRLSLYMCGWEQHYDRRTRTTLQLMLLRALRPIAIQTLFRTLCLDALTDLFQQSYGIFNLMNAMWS
T1 sequence (B6C755 1-473 partner): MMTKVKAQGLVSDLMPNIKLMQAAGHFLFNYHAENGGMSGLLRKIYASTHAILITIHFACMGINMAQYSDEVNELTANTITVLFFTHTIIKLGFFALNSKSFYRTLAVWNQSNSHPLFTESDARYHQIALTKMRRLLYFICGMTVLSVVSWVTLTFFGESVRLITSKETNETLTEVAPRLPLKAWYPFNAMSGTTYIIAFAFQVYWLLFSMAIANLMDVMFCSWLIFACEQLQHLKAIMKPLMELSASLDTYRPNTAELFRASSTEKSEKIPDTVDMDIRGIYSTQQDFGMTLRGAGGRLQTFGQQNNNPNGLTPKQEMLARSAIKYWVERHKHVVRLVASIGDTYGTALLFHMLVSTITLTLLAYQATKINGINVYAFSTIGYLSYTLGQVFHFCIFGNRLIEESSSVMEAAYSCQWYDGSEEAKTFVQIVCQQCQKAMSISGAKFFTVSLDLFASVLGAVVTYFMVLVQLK
Put plainly: two-electrode voltage clamp, inward current in Xenopus oocytes. It is filed as cell-based. Background: Two-electrode voltage clamp holds a large cell at a set potential and records current.

Consider `CC/C=C/C=C\CCCCCCCCOC(C)=O` [(Z,E)-9,11-14:OAc, (Z,E)-9,11-tetradecadienyl acetate], for which a half-maximal effect (EC50) was put at 171 nM.
